For orientation: IC50 means the midpoint of a concentration-inhibition curve. A lower IC50 goes with greater potency. In general, EC50 refers to the concentration giving half of the maximal effect. As a reminder, the inhibition is the drop in the measured response relative to a control, in per cent. A high value points to a response far below the control.

Experimental findings from ChEMBL document CHEMBL1145145, “Design and synthesis of o-trifluoromethylbiphenyl substituted 2-amino-nicotinonitriles as inhibitors of farnesyltransferase” (Bioorg Med Chem Lett, 2005) are described below.

The target in assay [1] is Protein farnesyltransferase (Homo sapiens, UniProt P49354+P49356). The experiment in a line: Inhibition of Farnesyl transferase inhibitor (ABT-839). In kind it is protein-complex assay.
Assay [2] has as its target T1, Protein farnesyltransferase (Mus musculus, UniProt Q61239+Q8K2I1). As to the kind of experiment: Effective concentration against H-ras processing in transformed NIH3T3 cells. Format: functional, cell-based.
The target of assay [3] is Geranylgeranyl transferase type I (Bos taurus, UniProt P29702+Q5EAD5). The experiment in a line: Inhibition of Bovine geranylgeranyl transferase. In kind it is protein-complex assay.
In assay [4] the target is Protein farnesyltransferase (Bos taurus, UniProt P29702+P49355). The experiment in a line: Inhibition of Bovine farnesyl transferase. In kind it is protein-complex assay.
Assay [5] addresses T1, Protein farnesyltransferase. As to the kind of experiment: Inhibition of H-ras processing in transformed NIH3T3 cells.
The species entered for another assay is Bos taurus. As to the kind of experiment: Selectivity for Bovine farnesyl transferase over geranylgeranyl transferase.
Assay [6] deals with T1, Protein farnesyltransferase. The experiment in a line: Effective concentration against H-ras processing in NIH 3T3 cells. In kind it is functional, cell-based, NIH3T3.

Turning to `Cn1cncc1C(OCc1ccc(C#N)c(NCC2CCCO2)n1)c1ccc(C#N)c(-c2ccccc2C(F)(F)F)c1` (centres undefined), the IC50 in assay [1] was determined as 1.1 nM; in assay [3], 2400 nM; in assay [4], 7.5 nM. The compound also displayed an EC50 in assay [2] of 285 nM.
Regarding `COC(=O)c1ccc(COC(c2ccc(C#N)c(-c3ccccc3C(F)(F)F)c2)c2cncn2C)nc1` (centres undefined), the IC50 in assay [3] worked out at 3900 nM; in assay [4], 9 nM. Further, the inhibition in assay [5] came out at 83%.
Take `Cn1cncc1C(OCc1ccc(C#N)cc1)c1ccc(C#N)c(-c2ccccc2CO)c1` (centres undefined): the IC50 in assay [3] was found to be 480 nM; in assay [4], 5.5 nM. In assay [5], this compound yielded an inhibition of 89%.
Regarding `Cc1ccccc1-c1cc(C(OCc2ccccc2)c2cncn2C)ccc1C#N` (centres undefined), the Selectivity in the assay listed under Bos taurus was 16. The IC50 in assay [3] was found to be 1300 nM; in assay [4], 84 nM. The EC50 in assay [6] is 2700 nM.
